Assay results from patent publication US20260159498A1, “AKT3 MODULATORS” (GEORGIAMUNE LLC, priority 2021, published 2026).

Molecular target: T1, Akt3 (Homo sapiens, UniProt Q9Y243)
T1 construct: endogenous in cells; host or cells: human CD4+/CD45RA+/CD25- naive T cells under Treg induction conditions
Experiment: Akt3 inhibition activity
Assay type: cell-based

T1 sequence (Q9Y243 whole entry): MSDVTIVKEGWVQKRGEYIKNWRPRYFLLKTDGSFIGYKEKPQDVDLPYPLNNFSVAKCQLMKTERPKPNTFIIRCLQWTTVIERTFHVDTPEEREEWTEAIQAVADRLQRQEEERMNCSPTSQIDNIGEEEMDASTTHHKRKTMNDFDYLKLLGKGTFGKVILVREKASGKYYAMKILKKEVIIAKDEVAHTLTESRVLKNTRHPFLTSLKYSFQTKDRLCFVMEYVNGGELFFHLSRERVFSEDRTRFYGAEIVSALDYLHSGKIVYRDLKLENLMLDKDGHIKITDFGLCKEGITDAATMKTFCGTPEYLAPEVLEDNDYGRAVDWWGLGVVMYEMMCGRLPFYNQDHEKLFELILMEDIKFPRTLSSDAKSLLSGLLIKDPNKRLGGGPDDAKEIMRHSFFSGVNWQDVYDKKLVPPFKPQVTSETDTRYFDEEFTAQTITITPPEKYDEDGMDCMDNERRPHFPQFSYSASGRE

Row | IC50 [nM] | SMILES
1 | < 1000 | Cc1cc(Nc2ccncc2)cc(N2Cc3cc(Nc4ccncc4)ccc3C2=O)c1 [Compound 26, 2-(3-methyl-5-(pyridin-4-ylamino)phenyl)-5-(pyridin-4-ylamino)isoindolin-1-one]
2 | < 1000 | Cc1ccc(N2Cc3cc(Nc4ccncc4)ccc3C2=O)cc1Nc1ccncc1 [Compound 27, 2-(4-methyl-3-(pyridin-4-ylamino)phenyl)-5-(pyridin-4-ylamino)isoindolin-1-one]
3 | < 1000 | Cc1cc(Nc2ccncc2)cc2c1C(=O)N(c1cccc(Nc3ccncc3)c1)C2 [Compound 30, 7-methyl-5-(pyridin-4-ylamino)-2-(3-(pyridin-4-ylamino)phenyl)isoindolin-1-one]
4 | < 5000 | Cc1cc2c(cc1Nc1ccncc1)CN(c1cccc(Nc3ccncc3)c1)C2=O [Compound 31, 6-methyl-5-(pyridin-4-ylamino)-2-(3-(pyridin-4-ylamino)phenyl)isoindolin-1-one]
5 | < 5000 | O=C1c2ccc(Nc3ccncc3)c(F)c2CN1c1cccc(Nc2ccncc2)c1 [Compound 32, 4-fluoro-5-(pyridin-4-ylamino)-2-(3-(pyridin-4-ylamino)phenyl)isoindolin-1-one]
6 | < 1000 | O=C1c2cc(F)c(Nc3ccncc3)cc2CN1c1cccc(Nc2ccncc2)c1 [Compound 33, 6-fluoro-5-(pyridin-4-ylamino)-2-(3-(pyridin-4-ylamino)phenyl)isoindolin-1-one]
7 | < 5000 | O=C1c2c(F)cc(Nc3ccncc3)cc2CN1c1cccc(Nc2ccncc2)c1 [Compound 34, 7-fluoro-5-(pyridin-4-ylamino)-2-(3-(pyridin-4-ylamino)phenyl)isoindolin-1-one]
8 | < 2000 | O=C1c2ccc(Nc3ccncc3)cc2CN1c1cc(F)cc(Nc2ccncc2)c1 [Compound 37, 2-(3-fluoro-5-(pyridin-4-ylamino)phenyl)-5-(pyridin-4-ylamino)isoindolin-1-one]
9 | < 1000 | O=C1c2ccc(Nc3ccncc3)cc2CN1c1ccc(F)c(Nc2ccncc2)c1 [Compound 38, 2-(4-fluoro-3-(pyridin-4-ylamino)phenyl)-5-(pyridin-4-ylamino)isoindolin-1-one]
10 | < 5000 | Cc1cc(Nc2ccc(-c3nc4cc(Nc5ccnc(C)c5)ccc4o3)cc2)ccn1 [Compound 39, N-(2-methylpyridin-4-yl)-2-(4-((2-methylpyridin-4-yl)amino)phenyl)benzo[d]oxazol-5-amine]
11 | < 2000 | Cc1cc(Nc2cccc(-c3nc4cc(Nc5ccnc(C)c5)ccc4o3)c2)ccn1 [Compound 40, N-(2-methylpyridin-4-yl)-2-(3-((2-methylpyridin-4-yl)amino)phenyl)benzo[d]oxazol-5-amine]
12 | < 5000 | Cc1cc(Nc2ccc(-c3nc4ccc(Nc5ccnc(C)c5)cc4o3)cc2)ccn1 [Compound 41, N-(2-methylpyridin-4-yl)-2-(4-((2-methylpyridin-4-yl)amino)phenyl)benzo[d]oxazol-6-amine]
13 | < 5000 | Cc1cc(Nc2cccc(-c3nc4ccc(Nc5ccnc(C)c5)cc4o3)c2)ccn1 [Compound 42, N-(2-methylpyridin-4-yl)-2-(3-((2-methylpyridin-4-yl)amino)phenyl)benzo[d]oxazol-6-amine]
14 | < 5000 | Cc1cc(Nc2ccc3oc(-c4cccc(Nc5ccc(F)cc5)c4)nc3c2)ccn1 [Compound 43, 2-(3-((4-fluorophenyl)amino)phenyl)-N-(2-methylpyridin-4-yl)benzo[d]oxazol-5-amine]
15 | < 1000 | Cc1cc(Nc2cc(C)c3c(c2)CN(c2cccc(Nc4ccncc4)c2)C3=O)ccn1 [Compound 44, 7-methyl-5-((2-methylpyridin-4-yl)amino)-2-(3-(pyridin-4-ylamino)phenyl)isoindolin-1-one]
16 | < 1000 | Cc1cc(Nc2cccc(N3Cc4cc(Nc5ccnc(C)c5)cc(C)c4C3=O)c2)ccn1 [Compound 45, 7-methyl-5-((2-methylpyridin-4-yl)amino)-2-(3-((2-methylpyridin-4-yl)amino)phenyl)isoindolin-1-one]
